# According to ChEMBL document CHEMBL1127074, “Novel hypotensive agents from Verbesina caracasana. 2. Synthesis and pharmacology of caracasanamide” (1993):
# Several values for one entry are separate records, joined by “and”; a condition that tells them apart may be missing. Equal entries are not always repeated.
# How the values were obtained:
# Rattus norvegicus [1] = experiment: Maximum rate of rise of the left ventricular isovolumetric pressure administered at 4.12 uM/kg iv in anesthetized rats; type: functional, Heart left ventricle
# Rattus norvegicus [2] = experiment: Tested for the change in diastolic blood pressure administered at 3200 ug/kg intravenously in anesthetized rats; type: functional, Artery
# Rattus norvegicus [3] = experiment: Tested for the change in diastolic blood pressure administered at 6400 ug/kg iv in anesthetized rats in presence of propranolol (3 mg/kg); type: functional, Artery
# Rattus norvegicus [4] = experiment: Tested for the change in systolic blood pressure administered at 200 ug/kg intravenously in anesthetized rats in presence of spinalization under vagotomy; type: functional, Artery
# Rattus norvegicus [5] = experiment: Tested for the change in systolic blood pressure administered at 3200 ug/kg intravenously in anesthetized rats in presence of hexamethonium (5 mg/kg) (p<0.05); type: functional, Artery
# Rattus norvegicus [6] = experiment: Maximum rate of rise of the left ventricular isovolumetric pressure (dP/dt) administered at 6400 ug/kg iv in anesthetized rats; type: functional, Heart left ventricle
# Rattus norvegicus [7] = experiment: Change in respiratory frequency administered at 100 ug/kg iv in anesthetized rats; type: functional
# Rattus norvegicus [8] = experiment: Change in respiratory frequency administered at 800 ug/kg iv in anesthetized rats; type: functional
# Rattus norvegicus [9] = experiment: Maximum rate of rise of the left ventricular isovolumetric pressure administered at 3200 ug/kg iv in anesthetized rats in presence of hexamethonium (5 mg/kg) (p<0.05); type: functional, Heart left ventricle
# Rattus norvegicus [10] = experiment: Change in heart rate administered at 800 ug/kg iv in anesthetized rats in presence of propranolol (3 mg/kg) (p<0.05); type: functional
# Rattus norvegicus [11] = experiment: Tested for the change in systolic blood pressure administered at 200 ug/kg iv in anesthetized rats in presence of spinalization under vagotomy; type: functional, Artery
# Rattus norvegicus [12] = experiment: Change in heart rate administered at 3200 ug/kg iv in anesthetized rats in presence of spinalization under vagotomy (p<0.05); type: functional
# Rattus norvegicus [13] = experiment: Tested for the change in diastolic blood pressure administered at 800 ug/kg iv in anesthetized rats in presence of hexamethonium (5 mg/kg) (p<0.05); type: functional, Artery
# Rattus norvegicus [14] = experiment: Tested for the change in diastolic blood pressure administered at 800 ug/kg iv in anesthetized rats in presence of propranolol (3 mg/kg); type: functional, Artery
# Rattus norvegicus [15] = experiment: Tested for the change in systolic blood pressure administered at 6400 ug/kg intravenously in anesthetized rats; type: functional, Artery
# Rattus norvegicus [16] = experiment: Change in heart rate administered at 3200 ug/kg iv in anesthetized rats in presence of hexamethonium (5 mg/kg) (p<0.05); type: functional
# Rattus norvegicus [17] = experiment: Maximum rate of rise of the left ventricular isovolumetric pressure (dP/dt) administered at 400 ug/kg iv in anesthetized rats; type: functional, Heart left ventricle
# Rattus norvegicus [18] = experiment: Tested for the change in systolic blood pressure administered at 50 ug/kg intravenously in anesthetized rats; type: functional, Artery
# Rattus norvegicus [19] = experiment: Change in heart rate administered at 800 ug/kg iv in anesthetized rats in presence of hexamethonium (5 mg/kg) (p<0.05); type: functional
# Rattus norvegicus [20] = experiment: Tested for the change in diastolic blood pressure administered at 1600 ug/kg iv in anesthetized rats in presence of propranolol (3 mg/kg); type: functional, Artery
# Rattus norvegicus [21] = experiment: Maximum rate of rise of the left ventricular isovolumetric pressure administered at 100 ug/kg iv in anesthetized rats in presence of spinalization under vagotomy; type: functional, Heart left ventricle
# Rattus norvegicus [22] = experiment: Maximum rate of rise of the left ventricular isovolumetric pressure administered at 3200 ug/kg iv in anesthetized rats in presence of phentolamine (2 mg/kg); type: functional, Heart left ventricle
# Rattus norvegicus [23] = experiment: Maximum rate of rise of the left ventricular isovolumetric pressure (dP/dt) administered at 200 ug/kg iv in anesthetized rats; type: functional, Heart left ventricle
# Rattus norvegicus [24] = experiment: Change in heart rate administered at 200 ug/kg iv in anesthetized rats in presence of spinalization under vagotomy; type: functional
# Rattus norvegicus [25] = experiment: Tested for the change in diastolic blood pressure administered at 6400 ug/kg intravenously in anesthetized rats; type: functional, Artery
# Rattus norvegicus [26] = experiment: Maximum rate of rise of the left ventricular isovolumetric pressure administered at 6400 ug/kg iv in anesthetized rats in presence of […] (3 mg/kg) (p<0.05); type: functional, Heart left ventricle
# Rattus norvegicus [27] = experiment: Maximum rate of rise of the left ventricular isovolumetric pressure administered at 1600 ug/kg iv in anesthetized rats in presence of […] (3 mg/kg) (p<0.05); type: functional, Heart left ventricle
# Rattus norvegicus [28] = experiment: Maximum rate of rise of the left ventricular isovolumetric pressure administered at 800 ug/kg iv in anesthetized rats in presence of hexamethonium (5 mg/kg) (p<0.05); type: functional, Heart left ventricle
# Rattus norvegicus [29] = experiment: Tested for the change in systolic blood pressure administered at 800 ug/kg intravenously in anesthetized rats; type: functional, Artery
# Rattus norvegicus [30] = experiment: Tested for the change in systolic blood pressure administered at 3200 ug/kg iv in anesthetized rats in presence of spinalization under vagotomy (p<0.05); type: functional, Artery
# Rattus norvegicus [31] = experiment: Tested for the change in diastolic blood pressure administered at 6400 ug/kg iv in anesthetized rats in presence of hexamethonium (5 mg/kg) (p<0.05); type: functional, Artery
# Rattus norvegicus [32] = experiment: Change in heart rate administered at 100 ug/kg iv in anesthetized rats in presence of spinalization under vagotomy; type: functional
# Rattus norvegicus [33] = experiment: Tested for change in diastolic blood pressure administered at 4.12 uM/kg iv in anesthetized rats; type: functional, Artery
# Rattus norvegicus [34] = experiment: Tested for the change in diastolic blood pressure administered at 1600 ug/kg intravenously in anesthetized rats; type: functional, Artery
# Rattus norvegicus [35] = experiment: Tested for the change in systolic blood pressure administered at 3200 ug/kg intravenously in anesthetized rats in presence of propranolol (3 mg/kg); type: functional, Artery
# Rattus norvegicus [36] = experiment: Maximum rate of rise of the left ventricular isovolumetric pressure administered at 800 ug/kg iv in anesthetized rats in presence of phentolamine (2 mg/kg); type: functional, Heart left ventricle
# Rattus norvegicus [37] = experiment: Maximum rate of rise of the left ventricular isovolumetric pressure administered at 1600 ug/kg iv in anesthetized rats in presence of hexamethonium (5 mg/kg) (p<0.05); type: functional, Heart left ventricle
# Rattus norvegicus [38] = experiment: Tested for the change in systolic blood pressure administered at 6400 ug/kg intravenously in anesthetized rats in presence of hexamethonium (5 mg/kg) (p<0.05); type: functional, Artery
# Rattus norvegicus [39] = experiment: Tested for the change in diastolic blood pressure administered at 3200 ug/kg iv in anesthetized rats in presence of propranolol (3 mg/kg); type: functional, Artery
# Rattus norvegicus [40] = experiment: Change in heart rate administered at 1600 ug/kg iv in anesthetized rats in presence of propranolol (3 mg/kg) (p<0.05); type: functional
# Rattus norvegicus [41] = experiment: Tested for change in systolic blood pressure administered at 4.12 uM/kg iv in anesthetized rats; type: functional, Artery
smiles,measurement,setting,value
COc1ccc(/C=C/C(=O)NCCCC/N=C(\N)NCC=C(C)C)cc1OC,dP/dtmax,Rattus norvegicus [1],3000 mmHg/s
same,Blood pressure,Rattus norvegicus [2],-29 mmHg and -47%
same,Blood pressure,Rattus norvegicus [3],-28 mmHg
same,Blood pressure,Rattus norvegicus [4],0 mmHg
same,Blood pressure,Rattus norvegicus [5],-11 mmHg
same,BP,Rattus norvegicus [6],58%
same,dp/dt,Rattus norvegicus [6],3074 mmHg s-1
same,Frequency,Rattus norvegicus [7],9 beats min-1 and 8%
same,Frequency,Rattus norvegicus [8],25 beats min-1 and 24%
same,dp/dt,Rattus norvegicus [9],1124 mmHg s-1
same,Heart rate,Rattus norvegicus [10],6 beats min-1
same,Blood pressure,Rattus norvegicus [11],0 mmHg
same,Heart rate,Rattus norvegicus [12],3 beats min-1
same,Blood pressure,Rattus norvegicus [13],-6 mmHg
same,Blood pressure,Rattus norvegicus [14],-13 mmHg
same,Blood pressure,Rattus norvegicus [15],-34 mmHg and -40%
same,Heart rate,Rattus norvegicus [16],9 beats min-1
same,BP,Rattus norvegicus [17],33%
same,dp/dt,Rattus norvegicus [17],1712 mmHg s-1
same,Blood pressure,Rattus norvegicus [18],-4 mmHg and -5%
same,Heart rate,Rattus norvegicus [19],5 beats min-1
same,Blood pressure,Rattus norvegicus [20],-20 mmHg
same,dp/dt,Rattus norvegicus [21],0 mmHg s-1
same,dp/dt,Rattus norvegicus [22],2627 mmHg s-1
same,BP,Rattus norvegicus [23],25%
same,dp/dt,Rattus norvegicus [23],1284 mmHg s-1
same,Heart rate,Rattus norvegicus [24],0 beats min-1
same,Blood pressure,Rattus norvegicus [25],-31 mmHg and -48%
same,dp/dt,Rattus norvegicus [26],853 mmHg s-1
same,dp/dt,Rattus norvegicus [27],520 mmHg s-1
same,dp/dt,Rattus norvegicus [28],890 mmHg s-1
same,Blood pressure,Rattus norvegicus [29],-17 mmHg and -21%
same,Blood pressure,Rattus norvegicus [30],-8 mmHg and -12 mmHg
same,Blood pressure,Rattus norvegicus [31],-20 mmHg
same,Heart rate,Rattus norvegicus [32],0 beats min-1
same,Blood pressure,Rattus norvegicus [33],-18 mmHg
same,Blood pressure,Rattus norvegicus [34],-18 mmHg and -29%
same,Blood pressure,Rattus norvegicus [35],-30 mmHg
same,dp/dt,Rattus norvegicus [36],2503 mmHg s-1
same,dp/dt,Rattus norvegicus [37],1008 mmHg s-1
same,Blood pressure,Rattus norvegicus [38],-13 mmHg
same,Blood pressure,Rattus norvegicus [39],-26 mmHg
same,Heart rate,Rattus norvegicus [40],7 beats min-1
same,Blood pressure,Rattus norvegicus [41],-21 mmHg
